For the experiment, the system named is human T cells (monocyte-free). Kind of experiment: Inhibition of 5-HT-dependent T cell proliferation. The class given is cell-based. Particulars: inhibition of T cell proliferation stimulated with PWM (1:200) and 5-HT (100 μm), 3H-thymidine incorporation, 7 days, test range 33 μM-0.1 μM. From the text: The in vitro activity of the compounds according to the invention results from their capability to inhibit T cell proliferation, which is previously stimulated by serotonin.
Peripheral mononuclear blood cells (PBMC) are obtained from the buffy coat of the blood of healthy subjects. After isolation by means of isolymph gradients (Pharmacia), the PBMC are washed twice and used directly. Purified T cells are obtained by E rosette formation with sheep erythrocytes [cf. Blue, M. -L., J. F. Daley, H. Levine, K. A. Craig and S. F. Schlossmann, 1986, Biosynthesis and surface expression of T8 by peripheral blood T4+ cells in vitro, J. Immunol. 137, 1202]. Monocytes are partially removed by adhesion to tissue culture plates or flasks. PBMC, T cells or purified T cells (depleted in monocytes) at 5×10^5 /ml, 100 µl/well are cultured in RPMI 1640 medium with 10% fetal calf serum (GIBCO) and L-glutamine in 96-well microculture plates (Becton-Dickinson) under a 5% CO2 atmosphere at 37° C. for 7 days. The cultures are treated with 1 μCi of ^3 H-thymidine for 6 h on the 7th day and collected on filter paper, and the incorporated radioactivity is determined by means of liquid scintillation counting.
The test substances are dissolved in 10 mM HCl in order to achieve a final concentration of 1 mM in each case. The compounds are diluted serially 3× with medium in order to obtain a final concentration between 33 μM-0.1 μM. PWM (1:200, pokeweed mitogen) and 5-HT (100 μm, serotonin), which contain the test substances, are added to monocyte-free human T cells. The positive control (maximum proliferation ) is obtained from cultures containing T cells, PWM and 5-HT. The negative control (minimal proliferation) is obtained from cultures containing T cells and PWM without 5-HT. The inhibitory activity of the test substances is expressed as the IC50 in μM. (see also WO 92/04015)
In turn, `O=C1C2C3c4ccccc4C(c4ccccc43)C2C(=O)N1CCCN1CC[Si](c2ccccc2)(c2ccccc2)CC1` (centres unmarked) [Example 4] displayed an IC50 of 20 µM.
The molecule `O=C1C2C3c4ccccc4C(c4ccccc43)C2C(=O)N1CCCN1CC2C3C=CC(C4CCC34)C2C1` (centres unmarked) [Example 5] returned a 50% inhibitory concentration (IC50) of 4 µM.
Under `O=C1C2C3c4ccccc4C(c4ccccc43)C2C(=O)N1CCCN1CC2CC=CC(CO)C2C1` (centres unmarked) [Example 3] stands 30 µM; under `c1ccc(N2CCC3CN(CCCN4CC5C6c7ccccc7C(c7ccccc76)C5C4)CC32)cc1` (centres unmarked) [Example 10], 1 µM; under `O=C1C2C3c4ccccc4C(c4ccccc43)C2C(=O)N1CCCN1CC2CCN(c3ccccc3)C2C1` (centres unmarked) [Example 2], 5 µM.
On to `c1ccc(CN2CCOC3CN(CCCN4CC5C6c7ccccc7C(c7ccccc76)C5C4)CC32)cc1` (centres unmarked) [Example 9], for which it took 20 µM to reach half-maximal inhibition (IC50).
The molecule `C1=CC2C3CCC3C1C1CN(CCCN3CC4C5c6ccccc6C(c6ccccc65)C4C3)CC21` (centres unmarked) [Example 11] displayed an IC50 of 1 µM.
In turn, `O=C1C2C3c4ccccc4C(c4ccccc43)C2C(=O)N1CCCN1CC2C3C=CC(C4CC34)C2C1` (centres unmarked) [Example 1, 13-[3-(4,6-Etheno-perhydro-cycloprop[f]isoindol-2-yl)propyl]-9,10-dihydro-9,10-[3', 4']-pyrroloanthracene-12,14[11H,15H) -dione] returned an IC50 of 5 µM.

The term IC50 denotes the concentration at which inhibition is half-maximal. Lower therefore signals greater potency in that assay.

Values taken from patent US5411960A, “Substituted pyrroloanthracenes and -diones” (Bayer Aktiengesellschaft, priority 1993, dated 1995).
